In brackets after ≈: the same amount, converted by molar mass. Read-outs that look alike come from different tables or passages of the source.

The results in this text go back to US20090305995A1, “AGONISTS AND ANTAGONISTS OF THE SOMATOSTATIN RECEPTOR” (Novartis AG, priority 2004, published 2009).

What all share (assay type): physicochemical
Data set [1] can be described thus: high throughput permeability (HT-Permeability, log Pe). As to conditions: PAMPA, Pe in cm/s.
Data set [2] can be described thus: HT-logP o/w, high throughput assay based on artificial liquid membrane permeability. From the text: To be absorbed and transported by passive diffusion, drugs must be sufficiently lipophilic to penetrate the lipid cores of membranes, but not too lipophilic that they get retained and accumulated there. The lipophilictity of a compound is expressed by the octanol/water partition coefficient or distribution coefficient. A first approximation of substance polarity can either be given by computer assisted calculations giving Clog P values or by measurement of the partition coefficients in high-throughput assays (HT-log P o/w) (Faller et al., 2004; Wohnsland et al., 2001).
Octanol/water partition coefficients are measured in a high throughput assay based on artificial liquid membrane permeability. […] Still many approaches to calculate log P values are limited due to a lack of parameterization of certain fragments and fail with increasing molecular weight which implicates higher structural complexity. Similar problems and failures are observed in chromatographic determinations of log P: Peptides might undergo structural changes driven by interactions with the stationary phase. Decisive interactions between the stationary phase and the defolded analytes are therefore also based on the linear peptide sequence. For this reason measured HT-log P o/w values based on chromatographic assays employing stationary phases may lead to erroneous results.

Data set [3] in a line: high throughput solubility (HT-Solubility). Particulars: for water solubility (in words): see FIG. 10.
[4] abbreviates: pH 4, pH 4.0, read-out: HT-Permeability logPe pH 4.0 (converted).
Where [5] appears, read: octanol/water, read-out: HT LogP ohw.
Where [6] appears, read: pH 1, pH 1.0, read-out: HT-Solubility pH 1.0.
Setting [7] is: pH 6.8, pH 6.8, read-out: HT-Solubility pH 6.8.
[8] abbreviates: pH 8, pH 8.0, read-out: HT-Permeability logPe pH 8.0 (converted).
The mark [9] stands for this setting: pH 6.8, pH 6.8, read-out: HT-Permeability logPe pH 6.8 (converted).

Usually solubility stands for how much of the substance goes into solution per volume. Turning to `CCCCNC(=O)C[C@H](CCCCN)NC(=O)[C@@H](Cc1c[nH]c2ccccc12)NC(=O)C[C@H](Cc1ccccc1)NC(=O)CCC` [Compound 54, Butyroyl-(S)-β^3-HPhe-(R)-Trp-(S)-β^3-HLys-butyl-amide], in data set [1] (setting [4]), the Papp is 0.1 ×10⁻⁶ cm/s. In data set [2] (setting [5]), the logP came out at 3.5. For the same molecule, the solubility amounted to 127 µg/mL (≈ 200 µM) in data set [3] (setting [6]) and 12.7 µg/mL (≈ 20.1 µM) in data set [3] (setting [7]).

For `C[C@H]1OC(=O)C[C@H]1NC(=O)C[C@H](CCCCN)NC(=O)[C@@H](Cc1c[nH]c2ccccc12)NC(=O)C[C@H](Cc1ccccc1)NC(=O)c1ccccc1` [Compound 6, Benzoyl-(S)-β^3-HPhe-(R)-Trp-(S)-β^3-HLys-(R)-4-amino-(R)-5-methyl-dihydro-furan-2-one], the Papp in data set [1] (pH 4.0, read-out: HT-Permeability logPe pH 4.0 (converted)) was 0.1 ×10⁻⁶ cm/s. The logP in data set [2] (octanol/water; read-out: HT LogP ohw) worked out at 2.8. Besides, the solubility in data set [3] (pH 1.0, read-out: HT-Solubility pH 1.0) was 142 µg/mL (≈ 200 µM); in data set [3] (pH 6.8, read-out: HT-Solubility pH 6.8) it was 14.2 µg/mL (≈ 20 µM).

`C[C@H]1OC(=O)C[C@H]1NC(=O)C[C@H](CCCCN)NC(=O)[C@@H](Cc1c[nH]c2ccccc12)NC(=O)C[C@@H](N)Cc1ccccc1` [Compound 28, (S)-β^3-HPhe-(R)-Trp-(S)-β^3-HLys-(R)-4-amino-(R)-5-methyl-dihydro-furan-2-one]: the Papp in data set [1] (setting [8]) was 3.16 ×10⁻⁶ cm/s. In addition, in data set [2] (setting [5]), the logP amounted to 3.5. Moreover, the solubility in data set [3] (setting [6]) and in data set [3] (setting [7]) was 60.5 µg/mL (≈ 100 µM) each time.

In the case of `CCCCCNC(=O)C[C@H](CCCCN)NC(=O)[C@@H](Cc1c[nH]c2ccccc12)NC(=O)C[C@H](Cc1ccccc1)NC(=O)CC` [Compound 51, Propionyl-(S)-β^3-HPhe-(R)-Trp-(S)-β^3-HLys-pentyl-amide], the Papp in data set [1] (setting [8]) was 3.98 ×10⁻⁶ cm/s. For the same molecule, the “HT LogP ohw” value in data set [2] (octanol/water) amounted to 3.4. For the same molecule, the “HT-Solubility pH 1.0” value in data set [3] (pH 1.0) worked out at 0.1266 g 1-1. In addition, in data set [3] (pH 6.8), the “HT-Solubility pH 6.8” value is 0.0316 g 1-1. In data set [3], the “water solubility (in words)” value is “medium to good”.

`CCCCCCCCC(=O)N[C@H](CC(=O)N[C@H](Cc1c[nH]c2ccccc12)C(=O)N[C@@H](CCCCN)CC(=O)N[C@@H]1CC(=O)O[C@@H]1C)Cc1ccccc1` [Compound 11]: in data set [1] (setting [4]), the Papp is 0.1 ×10⁻⁶ cm/s. The logP in data set [2] (setting [5]) came to 3.9. For the same molecule, the solubility in data set [3] (setting [6]) and in data set [3] (setting [7]) was 14.9 µg/mL (≈ 20 µM) throughout.

Turning to `CCC(=O)N[C@H](CC(=O)N[C@H](Cc1c[nH]c2ccccc12)C(=O)N[C@@H](CCCCN)CC(=O)NC1CCCC1)Cc1ccccc1` [Compound 57, Propionyl-(S)-β^3-HPhe-(R)-Trp-(S)-β^3-HLys-cyclopentyl-amide], in data set [1] (setting [4]), the Papp is 1 ×10⁻⁶ cm/s. The logP in data set [2] (setting [5]) was found to be 2.8. The solubility in data set [3] (setting [6]) came to 126 µg/mL (≈ 200 µM); in data set [3] (setting [7]) it was 63.1 µg/mL (≈ 100 µM).

As to `CCCCCCN(C)C(=O)C[C@H](CCCCN)NC(=O)[C@@H](Cc1c[nH]c2ccccc12)N(Cc1ccccc1)C(=O)C[C@H](Cc1ccccc1)NC(=O)CC` [Compound 68], in data set [1] (setting [4]), the Papp is 0.1 ×10⁻⁶ cm/s. The logP in data set [2] (setting [5]) stood at 5.5. Also, the figures for the solubility in data set [3] (setting [6]) and in data set [3] (setting [7]) were 75.1 µg/mL (≈ 100 µM) and 15 µg/mL (≈ 20 µM), respectively. Besides, the “water solubility (in words)” value in data set [3] is given as “does not allow for good water solubilities”.

With `CCCCCNC(=O)C[C@H](CCCCN)NC(=O)[C@@H](Cc1c[nH]c2ccccc12)NC(=O)C[C@H](Cc1ccccc1)NC(=O)CCC` [Compound 55, Butyroyl-(S)-β^3-HPhe-(R)-Trp-(S)-β^3-HLys-pentyl-amide], the results for the Papp in data set [1] (setting [4]) and in data set [1] (setting [9]) were 2.51 ×10⁻⁶ cm/s and 0.1 ×10⁻⁶ cm/s, respectively. Also, in data set [2] (setting [5]), the logP was determined as 3.7. The solubility was determined as 64.7 µg/mL (≈ 100 µM) in data set [3] (setting [6]) and 12.9 µg/mL (≈ 19.9 µM) in data set [3] (setting [7]).

Turning to `C[C@H]1OC(=O)C[C@H]1NC(=O)C[C@H](CCCCN)NC(=O)[C@@H](Cc1c[nH]c2ccccc12)NC(=O)C[C@H](Cc1ccccc1)NC(=O)CCc1ccccc1` [Compound 10, Dihydrocinnemoyl-(S)-β^3-HPhe-(R)-Trp-(S)-β^3-HLys-(R)-4-amino-(R)-5-methyl-dihydro-furan-2-one], in data set [1] (setting [4]), the Papp was 0.1 ×10⁻⁶ cm/s. Besides, the logP in data set [2] (setting [5]) was 2.7. In addition, the solubility in data set [3] (setting [6]) stood at 36.8 µg/mL (≈ 49.9 µM); in data set [3] (setting [7]) it was 7.4 µg/mL (≈ 10 µM).

As to `C[C@@H](O)[C@@H](CC(N)=O)NC(=O)C[C@H](CCCCN)NC(=O)[C@@H](Cc1c[nH]c2ccccc12)NC(=O)C[C@H](Cc1ccccc1)NC(=O)CCc1ccccc1` [Compound 15, Dihydrocinnemoyl-(S)-β^3-HPhe-(R)-Trp-(S)-β^3-HLys-(R), (R)—HThr-NH2], the Papp is 3.98 ×10⁻⁶ cm/s in data set [1] (setting [4]), 6.31 ×10⁻⁶ cm/s in data set [1] (setting [9]) and 12.6 ×10⁻⁶ cm/s in data set [1] (setting [8]). Also, the logP in data set [2] (setting [5]) came to 2.7. For the same molecule, the values for the solubility in data set [3] (setting [6]) and in data set [3] (setting [7]) were 37.7 µg/mL (≈ 50 µM) and 15.1 µg/mL (≈ 20 µM), respectively.

Consider `CC(=O)N[C@H](CC(=O)N(C)[C@H](Cc1c[nH]c2ccccc12)C(=O)N[C@@H](CCCCN)CC(=O)N[C@@H]1CC(=O)O[C@@H]1C)Cc1ccccc1` [Compound 40, Ac—(S)-β^3-HPhe-(R)—N-Me-Trp-(S)-β^3-HLys-(R)-4-amino-(R)-5-methyl-dihydro-furan-2-one], for which the Papp in data set [1] (setting [4]) is 0.1 ×10⁻⁶ cm/s. The logP in data set [2] (setting [5]) came out at 3.3. The solubility in data set [3] (setting [6]) was 66.1 µg/mL (≈ 100 µM); in data set [3] (setting [7]), 13.2 µg/mL (≈ 20 µM).

Turning to `CCCCCN(C)C(=O)C[C@H](CCCCN)NC(=O)[C@@H](Cc1c[nH]c2ccccc12)NC(=O)C[C@H](Cc1ccccc1)NC(=O)CCC` [Compound 41, Butyroyl-(S)-β^3-HPhe-(R)-Trp-(S)-β^3-HLys-methyl-pentyl-amide], the Papp was 2.51 ×10⁻⁶ cm/s in data set [1] (setting [4]), 3.98 ×10⁻⁶ cm/s in data set [1] (setting [9]) and 1 ×10⁻⁶ cm/s in data set [1] (setting [8]). Further, the logP in data set [2] (setting [5]) came to 3.6. Besides, the solubility in data set [3] (setting [6]) and in data set [3] (setting [7]) was 132 µg/mL (≈ 200 µM) each time. The “water solubility (in words)” value in data set [3] is listed as “highest solubility values”.

For the molecule `CCCCNC(=O)C[C@H](CCCCN)NC(=O)[C@@H](Cc1c[nH]c2ccccc12)NC(=O)C[C@H](Cc1ccccc1)NC(=O)CC` [Compound 53, Propionyl-(S)-β^3-HPhe-(R)-Trp-(S)-β^3-HLys-butyl-amide], the results for the Papp in data set [1] (setting [4]), in data set [1] (setting [9]) and in data set [1] (setting [8]) were 7.94 ×10⁻⁶ cm/s, 5.01 ×10⁻⁶ cm/s and 10 ×10⁻⁶ cm/s, respectively. Moreover, in data set [2] (setting [5]), the logP was 3.1. Further, the solubility in data set [3] (setting [6]) is 124 µg/mL (≈ 200 µM); in data set [3] (setting [7]), 30.9 µg/mL (≈ 49.9 µM). The “water solubility (in words)” value in data set [3] is reported as “medium to good”.

On to `CCCCCN(C)C(=O)C[C@H](CCCCN)NC(=O)[C@@H](Cc1c[nH]c2ccccc12)NC(=O)C[C@H](Cc1ccccc1)NC(C)=O` [Compound 47, Ace-(S)-β^3-HPhe-(R)-Trp-(S)-β^3-HLys-methyl-pentyl-amide], for which the Papp in data set [1] (setting [4]) was 3.98 ×10⁻⁶ cm/s; in data set [1] (setting [9]), 1.58 ×10⁻⁶ cm/s; in data set [1] (setting [8]), 1 ×10⁻⁶ cm/s. Also, in data set [2] (setting [5]), the logP is 3. Moreover, the solubility in data set [3] (setting [6]) and in data set [3] (setting [7]) was 127 µg/mL (≈ 200 µM) throughout. The “water solubility (in words)” value in data set [3] is recorded as “highest solubility values”.

On to `CCCCN(C)C(=O)C[C@H](CCCCN)NC(=O)[C@@H](Cc1c[nH]c2ccccc12)NC(=O)C[C@H](Cc1ccccc1)NC(=O)CCC` [Compound 42, Butyroyl-(S)-β^3-HPhe-(R)-Trp-(S)-β^3-HLys-methyl-butyl-amide], for which the Papp in data set [1] (setting [4]) was 1 ×10⁻⁶ cm/s; in data set [1] (setting [9]), 2 ×10⁻⁶ cm/s; in data set [1] (setting [8]), 5.01 ×10⁻⁶ cm/s. Further, the logP in data set [2] (setting [5]) turned out to be 3.7. Besides, the solubility in data set [3] (setting [6]) turned out to be 64.7 µg/mL (≈ 100 µM); in data set [3] (setting [7]), 129 µg/mL (≈ 200 µM). Besides, the “water solubility (in words)” value in data set [3] is recorded as “highest solubility values”.
